The assay concerns the target T1, 1-deoxy-D-xylulose 5-phosphate synthase (DXPS) (Escherichia coli, UniProt P77488).
T1 construct: gene dxs
T1 sequence (P77488 2-620): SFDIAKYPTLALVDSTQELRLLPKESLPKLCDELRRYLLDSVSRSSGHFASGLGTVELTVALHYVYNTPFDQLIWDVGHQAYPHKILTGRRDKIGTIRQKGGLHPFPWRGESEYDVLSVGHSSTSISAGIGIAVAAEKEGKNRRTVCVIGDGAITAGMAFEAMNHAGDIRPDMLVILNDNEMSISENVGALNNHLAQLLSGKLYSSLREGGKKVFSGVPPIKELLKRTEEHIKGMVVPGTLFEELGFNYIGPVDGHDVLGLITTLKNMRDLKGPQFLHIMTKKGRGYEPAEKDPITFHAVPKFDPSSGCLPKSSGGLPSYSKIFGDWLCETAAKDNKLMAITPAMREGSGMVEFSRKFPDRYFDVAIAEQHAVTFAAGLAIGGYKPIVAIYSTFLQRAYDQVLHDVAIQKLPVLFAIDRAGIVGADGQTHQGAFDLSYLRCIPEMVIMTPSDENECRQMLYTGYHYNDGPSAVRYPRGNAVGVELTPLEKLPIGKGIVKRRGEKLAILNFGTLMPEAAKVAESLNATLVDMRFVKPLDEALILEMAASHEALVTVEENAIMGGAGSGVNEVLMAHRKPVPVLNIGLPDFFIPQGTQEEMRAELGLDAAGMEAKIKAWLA
The assay is described as follows: DXPS-IspC coupled assay (Morrison Ki); also CD detection of the PLThDP adduct and photo-crosslink in-gel fluorescence labeling. It counts as biochemical.

Take `C#CCCC1(CCOP(=O)(O)C(C)=O)N=N1` [compound 1, ABP 1]: the Ki came out at 1600 ± 220 nM.

These data come from PMC11562961, “An activity-based probe for antimicrobial target DXP synthase, a thiamin diphosphate-dependent enzyme” (Frontiers in chemical biology, 2024).
